Results from US7790753B2, “Derivatives of N-[phenyl(alkylpiperidine-2-yl)methyl]benzamide, preparation method thereof and application of same in therapeutics” (sanofi-aventis, priority 2003, dated 2010).
Counter-ions that a name gives are not always drawn.

Tests used:
[1] = target: T1, native human transporter glyt1 (Homo sapiens, UniProt P48067); assay: Glycine transportation ([14C]glycine uptake) in SK-N-MC cells expressing the native human transporter glyt1; type: cell-based; details: 10 μM [14C]glycine, 10 minutes at 37° C., read-out: IC50, concentration of compound that reduces by 50% the specific uptake of glycine
T1 construct: SK-N-MC cells (human neuroepithelial cells) expressing the native human transporter glyt1; endogenous in cells; host or cells: SK-N-MC cells (human neuroepithelial cells)
T1 sequence (P48067 1-706): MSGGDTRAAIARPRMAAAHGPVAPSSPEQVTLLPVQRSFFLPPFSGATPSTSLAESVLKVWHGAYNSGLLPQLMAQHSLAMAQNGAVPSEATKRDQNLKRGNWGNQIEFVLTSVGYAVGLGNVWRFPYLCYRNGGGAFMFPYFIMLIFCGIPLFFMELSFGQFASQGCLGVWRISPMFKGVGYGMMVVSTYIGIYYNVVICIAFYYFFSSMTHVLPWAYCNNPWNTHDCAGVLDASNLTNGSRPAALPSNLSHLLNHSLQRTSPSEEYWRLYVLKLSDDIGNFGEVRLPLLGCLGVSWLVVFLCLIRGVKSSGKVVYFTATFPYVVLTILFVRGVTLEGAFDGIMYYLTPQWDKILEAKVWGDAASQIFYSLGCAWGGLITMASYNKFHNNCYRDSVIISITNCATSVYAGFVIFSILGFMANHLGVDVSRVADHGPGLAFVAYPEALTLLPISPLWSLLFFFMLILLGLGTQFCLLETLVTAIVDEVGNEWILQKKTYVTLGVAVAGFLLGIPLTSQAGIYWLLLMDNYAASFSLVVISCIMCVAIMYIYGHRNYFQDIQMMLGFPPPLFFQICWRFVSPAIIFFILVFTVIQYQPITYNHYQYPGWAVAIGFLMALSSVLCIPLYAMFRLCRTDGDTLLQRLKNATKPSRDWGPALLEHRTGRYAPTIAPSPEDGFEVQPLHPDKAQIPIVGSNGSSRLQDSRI
Method: Study of Glycine Transportation in SK-N-MC Cells Expressing the Native Human Transporter glyt1
The uptake of [^14C]glycine is studied in SK-N-MC cells (human neuroepithelial cells) expressing the native human transporter glyt1 by measuring the radioactivity incorporated in the presence or absence of the test compound. The cells are cultured as a monolayer for 48 hours in plates pretreated with 0.02% fibronectin. On the day of the experiment, the culture medium is removed and the cells are washed with Krebs-HEPES buffer ([4-(2-hydroxyethyl)-1-piperazineethanesulfonic acid) at pH 7.4. After preincubation for 10 minutes at 37° C. in the presence either of buffer (control batch) or of test compound at various concentrations or of 10 mM glycine (determination of the nonspecific uptake), 10 μM of [^14C]glycine (specific activity 112 mCi/mmol) are then added.
Incubation is continued for 10 minutes at 37° C., and the reaction is quenched by washing twice with pH 7.4 Krebs-HEPES buffer. The radioactivity incorporated by the cells is then estimated after adding 100 μl of liquid scintillant and stirring for 1 hour. Counting is performed on a Microbeta Tri-Lux™ counter. The efficacy of the compound is determined by means of the IC50, which is the concentration of compound that reduces by 50% the specific uptake of glycine, defined by the difference in radioactivity incorporated by the control batch and the batch that received 10 mM of glycine.

transporter glyt2 = target: T2, transporter glyt2 (Mus musculus, UniProt Q761V0); assay: Glycine transportation ([14C]glycine uptake) in mouse spinal cord homogenate; type: biochemical; details: 10 μM [14C]glycine, 10 minutes at 25° C., read-out: IC50, concentration capable of reducing by 50% the specific uptake of glycine
T2 construct: from tissue; host or cells: spinal cord of male OF1 Iffa Credo mice
T2 sequence (Q761V0 1-799): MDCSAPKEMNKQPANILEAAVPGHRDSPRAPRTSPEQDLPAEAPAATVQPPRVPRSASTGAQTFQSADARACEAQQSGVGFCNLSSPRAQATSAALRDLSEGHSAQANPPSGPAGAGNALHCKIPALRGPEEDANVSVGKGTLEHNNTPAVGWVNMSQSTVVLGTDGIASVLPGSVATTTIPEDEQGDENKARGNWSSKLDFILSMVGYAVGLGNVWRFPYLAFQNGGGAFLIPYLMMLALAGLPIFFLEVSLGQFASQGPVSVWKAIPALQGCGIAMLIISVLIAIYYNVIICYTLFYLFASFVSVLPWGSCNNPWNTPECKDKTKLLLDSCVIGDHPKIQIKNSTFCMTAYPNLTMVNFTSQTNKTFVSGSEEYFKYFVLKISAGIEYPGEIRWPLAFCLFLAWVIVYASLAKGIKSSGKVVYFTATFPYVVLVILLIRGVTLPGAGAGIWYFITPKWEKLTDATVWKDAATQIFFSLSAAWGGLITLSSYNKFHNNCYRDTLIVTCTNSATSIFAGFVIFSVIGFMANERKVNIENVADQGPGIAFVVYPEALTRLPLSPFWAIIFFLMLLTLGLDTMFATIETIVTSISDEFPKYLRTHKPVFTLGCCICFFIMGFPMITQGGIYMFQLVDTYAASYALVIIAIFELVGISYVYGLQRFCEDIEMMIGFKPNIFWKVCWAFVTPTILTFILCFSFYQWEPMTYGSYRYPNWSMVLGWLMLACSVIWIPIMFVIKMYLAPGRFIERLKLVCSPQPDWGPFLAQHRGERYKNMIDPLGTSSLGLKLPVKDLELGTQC
Text: Study of the Glycine Transportation in Mouse Spinal Cord Homogenate
The uptake of [^14C]glycine by the transporter glyt2 is studied in mouse spinal cord homogenate by measuring the radioactivity incorporated in the presence or absence of test compound.
After euthanizing the animals (male OF1 Iffa Credo mice weighing 20 to 25 g on the day of the experiment), the spinal cord of each animal is rapidly removed, weighed and stored on ice. The samples are homogenized in pH 7.4 Krebs-HEPES buffer ([4-(2-hydroxyethyl)-1-piperazineethanesulfonic acid), in a proportion of 25 ml/g of tissue.
50 μl of homogenate are preincubated for 10 minutes at 25° C. in the presence of pH 7.4 Krebs-HEPES buffer and of test compound at various concentrations, or of 10 mM of glycine to determine the nonspecific uptake. [^14C]glycine (specific activity=112 mCi/mmol) is then added over 10 minutes at 25° C. to a final concentration of 10 μM. The reaction is quenched by vacuum filtration and the radioactivity is estimated by solid scintillation by counting on a Microbeta Tri-Lux™ counter. The efficacy of the compound is determined by means of the IC50, the concentration capable of reducing by 50% the specific uptake of glycine, defined by the difference in radioactivity incorporated by the control batch and the batch that received 10 mM of glycine.

| SMILES | IC50 [1] [nM] | IC50 (transporter glyt2) [nM] |
| --- | --- | --- |
| CN1CCCCC1(C)C(NC(=O)c1cccc(C(F)(F)F)c1Cl)c1ccccc1 (stereo not drawn) [Compound 10, Threo-2-chloro-N-[(1,2-dimethyl-2-piperidyl)(phenyl)methyl]-3-(trifluoromethyl)benzamide hydrochloride 1:1] | 8 | – |
| CC1CCN(C)C(C(NC(=O)c2cccc(C(F)(F)F)c2Cl)c2ccccc2)C1 (stereo not drawn) [Compound 9, Cis-threo-2-chloro-N-[(1,4-dimethyl-2-piperidyl)(phenyl)methyl]-3-(trifluoromethyl)benzamide hydrochloride 1:1] | 90 | 70 |
| CC1CCC(C(NC(=O)c2cccc(C(F)(F)F)c2Cl)c2ccc(F)cc2)N(C)C1 (stereo not drawn) [Compound 5, Trans-threo-2-chloro-N-[(1,5-dimethyl-2-piperidyl)(4-fluorophenyl)methyl]-3-(trifluoromethyl)benzamide hydrochloride 1:1] | 100 | – |
| CC1CCCC(C(NC(=O)c2cccc(C(F)(F)F)c2Cl)c2ccccc2)N1C (stereo not drawn) [Compound 1, Cis-threo-2-chloro-N-[(1,6-dimethyl-2-piperidyl)(phenyl)methyl]-3-(trifluoromethyl)benzamide hydrochloride 1:1] | 510 | 120 |
